Patent US11066414B2, “Cot modulators and methods of use thereof” (Gilead Sciences, Inc., priority 2015, dated 2021)
Read-outs that look alike come from different tables or passages of the source.

Legend:
[1] = test system: TNFα; assay: Cot Monocyte TNFα Cell Based Assay
[2] = target: Human Cot (Homo sapiens (Human), UniProt P41279); assay: High Throughput Cot Biochemical Assay; conditions: Cot HTRF (TR-FRET) biochemical assay
[3] = Homo sapiens, Monocyte, read-out: EC50 TNF, LPS-stimulated human monocytes, TNFα
[4] = read-out: EC50 TNF, LPS-stimulated human monocytes, TNFα

Human Cot, sequence (P41279 30-397): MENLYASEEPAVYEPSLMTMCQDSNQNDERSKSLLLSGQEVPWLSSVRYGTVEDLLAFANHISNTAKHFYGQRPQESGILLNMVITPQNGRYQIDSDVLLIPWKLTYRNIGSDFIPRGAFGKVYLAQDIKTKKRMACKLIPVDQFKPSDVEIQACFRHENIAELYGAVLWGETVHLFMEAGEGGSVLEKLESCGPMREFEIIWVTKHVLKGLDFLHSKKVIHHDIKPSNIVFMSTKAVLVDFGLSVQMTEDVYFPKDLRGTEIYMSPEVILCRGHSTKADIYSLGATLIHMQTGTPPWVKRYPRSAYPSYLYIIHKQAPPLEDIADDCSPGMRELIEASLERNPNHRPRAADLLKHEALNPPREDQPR

| EC50 [1, 3] | IC50 ([2]; IC50 HTRF) | EC50 [1, 4] | IC50 ([2]; read-out: IC50 HTRF) | SMILES |
| --- | --- | --- | --- | --- |
| 832 nM | 10 nM |  |  | Cc1ncccc1[C@H](Nc1cc(Cl)c2ncc(C#N)c(Nc3cnc(F)c(F)c3)c2c1)c1cn(C2COC2)nn1 [Example 172, (S)-8-chloro-4-((5,6-difluoropyridin-3-yl)amino)-6-(((2-methylpyridin-3-yl)(1-(oxetan-3-yl)-1H-1,2,3-triazol-4-yl)methyl)amino)quinoline-3-carbonitrile] |
| 1110 nM | 7 nM |  |  | Cc1ncccc1[C@H](Nc1cc(Cl)c2ncc(C#N)c(Nc3cnc(F)c(F)c3)c2c1)c1c[nH]nn1 [Example 173, (S)-8-chloro-4-((5,6-difluoropyridin-3-yl)amino)-6-(((2-methylpyridin-3-yl)(1H-1,2,3-triazol-4-yl)methyl)amino)quinoline-3-carbonitrile] |
|  |  | 54 nM | 2 nM | CC[C@@H](Nc1c(C#N)cnc2c(Cl)cc(N[C@@H](c3cccnc3)c3cn([C@H]4[C@@H]5CN(C6COC6)C[C@@H]54)nn3)cc12)c1ccccc1 [Example 174, 8-chloro-6-(((S)-(1-((1 R,5S,6s)-3-(oxetan-3-yl)-3-azabicyclo[3.1,0]hexan-6-yl)-1H-1,2,3-triazol-4-yl)(pyridin-3-yl)methyl)amino)-4-(((R)-1-phenylpropyl)amino)quinoline-3-carbonitrile] |
| 73 nM | 3 nM |  |  | CC[C@@H](Nc1c(C#N)cnc2c(Cl)cc(N[C@@H](c3cccnc3)c3cn(CC#N)nn3)cc12)c1ccccc1 [Example 175, 8-chloro-6-(((S)-(1-(cyanomethyl)-1H-1,2,3-triazol-4-yl)(pyridin-3-yl)methyl)amino)-4-(((R)-1-phenylpropyl)amino)quinoline-3-carbonitrile] |
| 31 nM | 2 nM |  |  | CC[C@@H](Nc1c(C#N)cnc2c(Cl)cc(N[C@@H](c3cccnc3)c3cn(CCCN4CCCC4)nn3)cc12)c1ccccc1 [Example 176, 8-chloro-4-(((R)-1-phenylpropyl)amino)-6-(((S)-pyridin-3-yl(1-(3-(pyrrolidin-1-yl)propyl)-1H-1,2,3-triazol-4-yl)methyl)amino)quinoline-3-carbonitrile] |
| 79 nM | 2 nM |  |  | CC[C@@H](Nc1c(C#N)cnc2c(Cl)cc(N[C@@H](c3cccnc3)c3cn(CCF)nn3)cc12)c1ccccc1 [Example 177, 8-chloro-6-(((S)-(1-(2-fluoroethyl)-1H-1,2,3-triazol-4-yl)(pyridin-3-yl)methyl)amino)-4-(((R)-1-phenylpropyl)amino)quinoline-3-carbonitrile] |
| 931 nM | 7 nM |  |  | N#Cc1cnc2c(Cl)cc(N[C@@H](c3cccnc3)c3c[nH]nn3)cc2c1N[C@@H](CCO)c1ccccc1 [Example 178, 8-chloro-4-(((S)-3-hydroxy-1-phenylpropyl)amino)-6-(((S)-pyridin-3-yl(1H-1,2,3-triazol-4-yl)methyl)amino)quinoline-3-carbonitrile] |
| > 10000 nM | 265 nM |  |  | N#Cc1cnc2c(Cl)cc(N[C@@H](c3cccnc3)c3c[nH]nn3)cc2c1N[C@H](CCO)c1ccccc1 [Example 179, 8-chloro-4-(((R)-3-hydroxy-1-phenylpropyl)amino)-6-(((S)-pyridin-3-yl(1H-1,2,3-triazol-4-yl)methyl)amino)quinoline-3-carbonitrile] |
|  |  | 104 nM | 1 nM | CC[C@@H](Nc1c(C#N)cnc2c(Cl)cc(N[C@@H](c3cccnc3)c3cn([C@H]4[C@@H]5CNC[C@@H]54)nn3)cc12)c1ccccc1 [Example 180, 6-(((S)-(1-((• R,5S,6s)-3-azabicyclo[3.1 0]hexan-6-yl)-1H-1,2,3-triazol-4-yl)(pyridin-3-yl)methyl)amino)-8-chloro-4-(((R)-1-phenylpropyl)amino)-quinoline-3-carbonitrile] |
|  |  | > 10000 nM | 357 nM | N#Cc1cnc2c(Cl)cc(N[C@@H](c3cccnc3)c3cn(C4COC4)nn3)cc2c1N[C@H](CCO)c1ccccc1 [Example 183, 8-chloro-4-(((R)-3-hydroxy-1-phenylpropyl)amino)-6-(((S)-(1-(oxetan-3-yl)-1H-1,2,3-triazol-4-yl)(pyridin-3-l)methyl)amino)-quinoline-3-carbonitrile] |
